Marks after values point to notes of the source that are not given here.
Columns and labels:
Format in all cases: in vivo
[1] = system: swine; test: 2002 swine feed test: 21-day raw pork loin quality measurements; parameters: key to Hunter a: Hunter a; more positive = redder; key to Hunter b: Hunter b; more positive = more yellow; Hunter a* / Hunter b*: scale not given here; settings: for Chop purge, % / Cooking Loss, %: 21-day pork loin; for Hunter L / Hunter L* / Hunter a / Hunter a* / Hunter b / Hunter b* / Loin pH / Loin purge, %: 21-day raw pork loin; for Instron force, kg: force to pierce loin chop
From the text: Applicants conducted a second swine feeding trial to further determine the effects on meat quality of supplementation of a swine diet with alpha-tocopherol (AT), gamma-tocopherol (GT) or mixed tocotrienols (MT). Seventy-two barrows (˜75 lbs.) were transported to the Pioneer Livestock Nutrition Center (PLNC) and randomly placed into individual pens with water and feed provided ad libitum. The pigs received a common diet for seven days. On the eighth day the pigs were weighed individually and a uniform group of sixty pigs with an average body weight of about 75 pounds was selected. The pigs were randomly assigned one of five dietary treatments with 12 pigs per treatment. The feeding trial was initiated on Mar. 12, 2002 and ended on Jun. 19, 2002.
The pigs were fed a corn-soybean meal diet formulated to provide adequate levels of all nutrients. In addition, one of five dietary treatments was assigned to each group: control, 300 ppm AT, 450 ppm GT, 150 ppm MT, and 300 ppm MT. To each diet a corn oil premix and a ground corn premix were added with the corn oil premix as a carrier for the supplemental tocopherols and the ground corn premix as the carrier for the MT. The MT supplement was obtained commercially from Fuji Chemical Industries (U.S.A.) Inc. of Robbinsville, N.J., and contained 7.5% alpha-, 12.3% gamma- and 3.0% delta-tocotrienol, as well as 7.2% alpha-tocopherol.
Approximately twenty-one days after slaughter the loins were removed from vacuum bags and weighed. The liquid that had accumulated in the bags during storage was measured to calculate 21-day purge. Loin pH was measured at three locations by carefully inserting a glass probe into the mid-point of the anterior, mid and posterior thirds of each loin. As expected, measurement location (blade, chop or shoulder) affected loin pH, Hunter L, L* and a* values.
The Hunter L, a and b values were measured with a Hunter laboratory system for color evaluation. Hunter L is a measurement of the lightness of an object, and may be thought of as the light reflectance from the surface of an object. Thus, a higher Hunter L value indicates a lighter color, and an L value of 100 would indicate prefect reflectance from the surface. (The white standard has an L value of 97.21.) An increasingly positive Hunter a value indicates a redder color, and an increasingly positive Hunter b value indicates a more yellow color.

[2] = system: swine; test: 2002 swine feed test: sensory characteristics of cooked pork loin chops
From the text: Applicants conducted a second swine feeding trial to further determine the effects on meat quality of supplementation of a swine diet with alpha-tocopherol (AT), gamma-tocopherol (GT) or mixed tocotrienols (MT). Seventy-two barrows (˜75 lbs.) were transported to the Pioneer Livestock Nutrition Center (PLNC) and randomly placed into individual pens with water and feed provided ad libitum. The pigs received a common diet for seven days. On the eighth day the pigs were weighed individually and a uniform group of sixty pigs with an average body weight of about 75 pounds was selected. The pigs were randomly assigned one of five dietary treatments with 12 pigs per treatment. The feeding trial was initiated on Mar. 12, 2002 and ended on Jun. 19, 2002. The pigs were fed a corn-soybean meal diet formulated to provide adequate levels of all nutrients. In addition, one of five dietary treatments was assigned to each group: control, 300 ppm AT, 450 ppm GT, 150 ppm MT, and 300 ppm MT. To each diet a corn oil premix and a ground corn premix were added with the corn oil premix as a carrier for the supplemental tocopherols and the ground corn premix as the carrier for the MT. The MT supplement was obtained commercially from Fuji Chemical Industries (U.S.A.) Inc. of Robbinsville, N.J., and contained 7.5% alpha-, 12.3% gamma- and 3.0% delta-tocotrienol, as well as 7.2% alpha-tocopherol. A one-inch thick chop was collected from the 10th rib region of each pig carcass to evaluate the effects of dietary treatment on cooked product characteristics. Sensory evaluation was conducted using a trained sensory panel. Each panelist evaluated a ½ inch cube removed from the center of a cooked pork chop immediately after reaching 71 degrees C. Samples were evaluated for degree of juiciness, tenderness, chewiness, pork flavor and off-flavor intensity.

[3] = system: chickens; test: 2002 poultry feed test: TBARS content of cooked ground chicken breasts; settings: 300 ppm in diet
From the text: (§1) Applicants also assessed the effects of antioxidant supplementation on meat quality in an experiment in which meat from chickens fed one of four dietary treatments was compared. On Jul. 25, 2002, day-old chicks were obtained from a commercial company. The birds were housed in a brooder until Aug. 11, 2002. On Aug. 11, forty-eight birds were randomly allocated to one of four pens (twelve birds per pen). Birds in each pen were offered ad libitum access to one of four treatment diets: control, 300 ppm AT, 300 ppm GT or 150 ppm MT. The MT premix contained a commercially available MT supplement (7.5% alpha-, 12.3% gamma- and 3.0% delta-tocotrienol and 7.2% alpha-tocopherol) mixed with ground corn as the carrier. The total MT premix (ground corn plus MT supplement) represented 2.5% w/w of the finished MT supplemented feed.
(§2) On Sep. 13, 2002 (seven weeks of age) the birds were harvested, identified and frozen at −20C. The birds were stored frozen at −20C for 136-159 days post slaughter. On days 136, 156, 157, 158 and 159 (where available) two birds per dietary treatment were thawed in cold water. Meat was removed from the breasts (pectoralis major muscles) and thighs. Breast meat from each chicken was ground through a 3 mm disc in a Krups Butcher Shop 150W Professional Power Meat Grinder. Thigh meat from two chickens was combined (for days 156, 157, 158 and 159; day 136 thigh meat was kept separate for each bird) and ground in a similar manner. Patties were made (10 g for breast; 60 g for thighs) using a 100×15 mm Petri dish as a mold.
(§3) Raw ground chicken breast and thigh patties were cooked in a pre-warmed George Foreman grill for five minutes per breast patty and four minutes per thigh patty. Cooked patties were allowed to cool under refrigeration and then quartered (day 136) or halved (days 156, 157, 158 and 159). Each quarter or half was stored at 2.2C in zip lock baggies for a designated period of time. One quarter was used per sampling period. Sampling periods were 0 hours, 4 hours, 26 hours and 48 hours. Thiobarbituric acid reacting substances (TBARS) analyses was performed according to Ahn et al., and the results are shown in the following two tables.

[4] = system: chickens; test: 2002 poultry feed test: TBARS content of cooked ground chicken thighs; settings: 300 ppm in diet
From the text: as §1, §2, §3

[5] = system: swine; test: 2002 swine feed test: 24 hour raw pork loin quality
[6] = scale of 1 to 10, 450 ppm in diet
[7] = scale of 1 to 10, 300 ppm in diet

## Cc1c(O)cc2c(c1C)O[C@](C)(CCC[C@H](C)CCC[C@H](C)CCCC(C)C)CC2 [GT, gamma-tocopherol]
[1]; 450 ppm in diet
  Chop purge, %: 2.40%
  Cooking Loss, %: 20.27%
  Hunter L: 45.47
  Hunter L*: 52.53
  Hunter a: 6.00
  Hunter a*: 7.14
  Hunter b: 8.41
  Hunter b*: 15.61
  Loin pH: 5.67
  Loin purge, %: 1.16%
  Instron force, kg: 5.53^a kg
[2]; [6]
  Chewiness: 2.5
  Juiciness: 5.4
  Off-flavor: 3.9
  Pork Flavor: 1.8
  Tenderness: 7.3
[3]; 0 hours at 2.2C
  TBARS content: 0.3809 mg Malonaldehyde/kg sample
[3]; 4 hours at 2.2C
  TBARS content: 0.3443^b mg Malonaldehyde/kg sample
[3]; 26 hours at 2.2C
  TBARS content: 0.4559^b mg Malonaldehyde/kg sample
[3]; 48 hours at 2.2C
  TBARS content: 0.6120^b mg Malonaldehyde/kg sample
[4]; 0 hours at 2.2C
  TBARS content: 0.4839^b mg Malonaldehyde/kg sample
[4]; 4 hours at 2.2C
  TBARS content: 0.6715^d mg Malonaldehyde/kg sample
[4]; 26 hours at 2.2C
  TBARS content: 1.2515^d mg Malonaldehyde/kg sample
[4]; 48 hours at 2.2C
  TBARS content: 1.6312^d mg Malonaldehyde/kg sample
[5]; 450 ppm in diet
  PH, hour 22: 5.76

## Cc1c(C)c2c(c(C)c1O)CC[C@@](C)(CCC[C@H](C)CCC[C@H](C)CCCC(C)C)O2 [AT, alpha-tocopherol]
[1]; 300 ppm in diet
  Chop purge, %: 1.97%
  Cooking Loss, %: 20.11%
  Hunter L: 46.68
  Hunter L*: 53.86
  Hunter a: 5.71
  Hunter a*: 6.76
  Hunter b: 8.60
  Hunter b*: 15.77
  Loin pH: 5.66
  Loin purge, %: 0.99%
  Instron force, kg: 4.98^b kg
[2]; [7]
  Chewiness: 2.3
  Juiciness: 6.0
  Off-flavor: 4.3
  Pork Flavor: 1.8
  Tenderness: 7.8
[3]; 0 hours at 2.2C
  TBARS content: 0.3067 mg Malonaldehyde/kg sample
[3]; 4 hours at 2.2C
  TBARS content: 0.4354^b mg Malonaldehyde/kg sample
[3]; 26 hours at 2.2C
  TBARS content: 0.3366^b mg Malonaldehyde/kg sample
[3]; 48 hours at 2.2C
  TBARS content: 0.4433^b mg Malonaldehyde/kg sample
[4]; 0 hours at 2.2C
  TBARS content: 0.4568^b mg Malonaldehyde/kg sample
[4]; 4 hours at 2.2C
  TBARS content: 0.8954^d mg Malonaldehyde/kg sample
[4]; 26 hours at 2.2C
  TBARS content: 0.8968^d mg Malonaldehyde/kg sample
[4]; 48 hours at 2.2C
  TBARS content: 1.1669^d mg Malonaldehyde/kg sample
[5]; 300 ppm in diet
  PH, hour 22: 5.86

— patent US20040266862A1, “Method of improving animal tissue quality by supplementing the animal diet with mixed tocotrienols” (priority 2003, published 2004)
